Two molecules from PMC10859541 (Journal of Pharmaceutical Analysis, 2023) can be followed below.

Where two headings read alike, the source gives them in different places.

Common to all, as to test: biolayer interferometry
Common to all, as to format: binding
(In general: In BLI a coated tip is dipped into the sample, and binding shifts an interference pattern.)

For assay [1], the target named is T1, PX domain containing serine/threonine kinase-like (PXK) (Homo sapiens, UniProt Q7Z7A4).
T1 sequence (Q7Z7A4 1-578): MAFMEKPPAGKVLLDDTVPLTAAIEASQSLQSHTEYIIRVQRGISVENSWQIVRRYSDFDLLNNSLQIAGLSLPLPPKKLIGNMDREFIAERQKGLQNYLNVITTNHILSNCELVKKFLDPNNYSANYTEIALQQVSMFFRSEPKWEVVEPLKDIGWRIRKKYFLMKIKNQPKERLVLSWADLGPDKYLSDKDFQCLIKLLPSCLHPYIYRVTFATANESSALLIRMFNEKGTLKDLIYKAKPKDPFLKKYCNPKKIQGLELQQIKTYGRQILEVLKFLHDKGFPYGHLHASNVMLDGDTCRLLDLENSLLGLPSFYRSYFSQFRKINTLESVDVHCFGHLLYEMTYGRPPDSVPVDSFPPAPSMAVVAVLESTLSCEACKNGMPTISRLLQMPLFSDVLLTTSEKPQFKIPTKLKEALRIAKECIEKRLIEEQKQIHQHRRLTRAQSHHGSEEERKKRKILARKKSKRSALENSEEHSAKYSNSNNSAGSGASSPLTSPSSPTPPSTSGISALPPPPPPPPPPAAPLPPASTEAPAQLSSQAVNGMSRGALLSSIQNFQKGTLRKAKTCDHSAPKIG

For assay [2], the target named is T2, metadherin (MTDH) (Homo sapiens, UniProt Q86UE4).
T2 sequence (Q86UE4 1-582): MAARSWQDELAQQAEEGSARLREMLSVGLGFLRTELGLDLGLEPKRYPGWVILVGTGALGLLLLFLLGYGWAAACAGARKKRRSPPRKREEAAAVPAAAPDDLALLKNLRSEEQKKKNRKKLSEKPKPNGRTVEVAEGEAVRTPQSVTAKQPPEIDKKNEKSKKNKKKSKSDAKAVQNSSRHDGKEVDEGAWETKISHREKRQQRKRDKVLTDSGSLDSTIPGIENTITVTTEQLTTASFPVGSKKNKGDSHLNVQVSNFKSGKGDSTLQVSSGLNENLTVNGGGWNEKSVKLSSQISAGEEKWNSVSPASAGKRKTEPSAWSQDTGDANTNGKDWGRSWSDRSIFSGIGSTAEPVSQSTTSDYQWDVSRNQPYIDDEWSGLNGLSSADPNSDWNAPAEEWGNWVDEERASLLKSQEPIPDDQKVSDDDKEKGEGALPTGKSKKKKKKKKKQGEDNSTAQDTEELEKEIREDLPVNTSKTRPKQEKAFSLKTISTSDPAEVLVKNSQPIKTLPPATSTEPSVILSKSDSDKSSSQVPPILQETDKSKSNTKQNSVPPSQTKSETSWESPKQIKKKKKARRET

For assay [3], the target named is T2, metadherin (MTDH). This is another data set of the same source.
Assay [4] addresses T1, PX domain containing serine/threonine kinase-like (PXK). This is another data set of the same source.

For orientation: Kd means the equilibrium constant for the complex coming apart. A higher Kd goes with lower affinity. Consider `O=C(O[C@@H]1Cc2c(O)cc(O)cc2O[C@@H]1c1cc(O)c(O)c(O)c1)c1cc(O)c(O)c(O)c1` [EGCG], for which the Kd in assay [1] worked out at 2.42 mM; on metadherin (MTDH) [2], 0.00027 mM.
Turning to `CC(=O)Oc1cc(OC(C)=O)c2c(c1)O[C@H](c1cc(OC(C)=O)c(OC(C)=O)c(OC(C)=O)c1)[C@H](OC(=O)c1cc(OC(C)=O)c(OC(C)=O)c(OC(C)=O)c1)C2` [ProEGCG], the results for the Kd (at metadherin (MTDH) [3]; in assay [4]) were 0.517 mM and 1.7 mM, respectively.
